In patent US20260347843A1, “NERVOUS SYSTEM DELIVERY ENHANCER” (priority 2022, published 2026):

What was measured:
Mapt mRNA = Mapt mRNA expression level in the hippocampus after intraventricular administration (target gene suppression effect); type: in vivo, mouse; details: 7 days
Protocol: Seven-week-old female ICR mice anesthetized with 2.5 to 4% isoflurane were fixed to a brain stereotaxic apparatus. Then, skin between the ears was cut open 2 to 3 cm anteroposteriorly, and perforated 1 mm leftward and 0.2 mm posteriorly from the bregma using a 1 mm diameter drill. A Hamilton syringe was filled with the nucleic acid agent. Through the perforated site, a needle was inserted approximately 3 mm deep. The ASO at a dose of 0.95 nmol (5 μg) per mouse was administered into the left lateral ventricle (n=4 to 7/group). The group to which ASO and TGN-073 were coadministered (hereinafter, the group is referred to as the “ASO/TGN-073 coadministration group”) means that ASO mixed with TGN-073 was administered. […]
Next, quantitative RT-PCR was performed with TaqMan (Roche Applied Science). Primers used in quantitative RT-PCR were products designed and manufactured by Thermo Fisher Scientific Inc. (formerly known as Life Technologies Corp.) on the basis of the various numbers of genes. […] The ratio of the expression amount of Malat1 RNA to the expression amount of Actb mRNA (internal standard gene) was calculated, and a value standardized with respect to the value of the PBS-treated group was determined as a relative Malat1 RNA level. […]

[1] = Evaluation of motor function in an open-field test; type: in vivo, mouse; details: coadministered with Mapt-targeting ASO (50 μg); 1 hour after intraventricular administration
Protocol: On the ASO described in Table 2, the preparation of the nucleic acid, an in vivo experiment, and the evaluation of the target gene suppression effect were performed by the same methods as in Example 1. In this Example, however, the dose of the nucleic acid agent per mouse was 9.4 nmol (50 μg).
By the below-described methods, evaluation of central nervous system toxicity and evaluation of motor function were performed on mice after intraventricular administration.
To evaluate the motor function, an open-field test was performed at each point of time after the intraventricular administration. Specifically, a mouse was placed in the center of a cage (50 cm in width×50 cm in […]×40 cm in height), and the track of the mouse was recorded for 5 minutes. On the basis of the data recorded, the total maximum moving speed (m/s) and the moving time(s) were measured using the video tracking software (ANY-maze).

[2] = IgG antibody concentration in left hippocampus after intraventricular administration (Alexa 647 fluorescence); type: in vivo; details: coadministered with IgG antibody (10 μg/mouse), TGN-073 250 μg/mouse, 3 hours
Protocol: In this Example, an Alexa 647 fluorescence-labeled IgG antibody (Goat anti-Rabbit IgG (H+L) Highly Cross-Adsorbed Secondary Antibody, Alexa Fluor (trademark)647, #A-21245, Invitrogen) alone or in combination with TGN-073 (250 μg/mouse) was administered at a dose of 10 μg/mouse to the left lateral ventricle of an 8-week-old ICR mouse (female). Hereinafter, the mice to which the IgG antibody alone was intraventricularly administered are referred to as the “IgG antibody single administration group”, and the mice to which the IgG antibody and TGN-073 were intraventricularly administered together are referred to as the “IgG/TGN-073 coadministration group”. Brain tissue samples of the left hippocampus were collected from the mice at 3 hours after the intraventricular administration. Using a fluorescence plate reader (M1000Pro, Tecan Group Ltd.), the Alexa 647 fluorescence intensity per brain weight was measured to thereby evaluate the concentration of the IgG antibody.

Compound: O=S(=O)(Nc1ncccc1OCc1ccccc1)c1ccccc1 [TGN-073, N-(3-benzyloxypyridin-2-yl)-benzene-sulfonamide]
- Target gene (Mapt) suppression effect in the hippocampus vs ASO single administration (Mapt mRNA; Example 7, coadministered with Mapt-targeting ASO of Table 6 (9.4 nmol, 50 μg), TGN-073-mes 0.125 mg/mouse per method): marked enhancement
- Target gene (Mapt) suppression effect in the hippocampus vs ASO single administration (Mapt mRNA; coadministered with Mapt-targeting ASO of Table 2 (9.4 nmol, 50 μg)): marked augmentation
- Maximum moving speed in open-field test vs ASO single administration [1]: substantially the same maximum moving speed
- Moving time in open-field test vs ASO single administration [1]: the same moving time
- IgG antibody concentration in the central nervous system (left hippocampus) vs IgG antibody single administration [2]: dramatic increase
